Test results as given in patent US11679167B2, “Ophthalmic compositions, and ocular uses thereof, of indigo carmine” (priority 2018, dated 2023).
“Also recorded” adds a separate entry of the source.

Key:
[1] = sodium salt; cited from earlier work
[2] = test system: ocular surface squamous neoplastic lesion; experiment: Topical application of dye to a human eye, slit lamp view; assay type: in vivo
From the text: FIG. 8 is a slit lamp view of a human eye wherein an ocular surface squamous neoplastic lesion is delineated after topical application of Indigo Carmine. A blue outline is seen around the perimeter of the white ocular surface squamous neoplastic lesion.

[3] = test system: porcine eye; experiment: Dye injected into the lenticular plain after Small Incision Lenticule Extraction (SMILE)
From the text: FIG. 9A is an operating microscope view of a porcine eye upon which a Small Incision Lenticule Extraction procedure (SMILE) has been carried out. From this view, circular horizontal plains have been cut in the corneal stroma, a superficial smaller diameter cut and a deeper cut of larger diameter. The cuts join in the corneal periphery, thereby creating a lenticule. The arrows show the edge of these cuts.
FIG. 9B is an operating microscope view of a porcine eye upon which a Small Incision Lenticule Extraction procedure (SMILE) has been carried out. Indigo Carmine has been injected into the lenticular plain.

[4] = test system: eye bank eyes; experiment: Dye solution instilled by injection into the anterior chamber of eye bank eyes; staining and outflow seen by naked eye or operating microscope; set-up: species or system human; details: for Appearance (egress) of dye in the outflow vessels after injection into the anterior chamber: human eye bank eyes, Indigo Carmine 0.004, 0.04 and 0.4 wt. %
From the text: After an incision is made into the anterior chamber of the eye, a small amount of aqueous humor is expressed and the dye solution is instilled by injection into the anterior chamber. The dye solution is typically left in place for 30 seconds, during which time it stains the anterior capsule of the lens. Excess dye solution is then expelled, usually using a viscoelastic device or flushed out with a balanced salt solution.
Dye solutions containing 0.004 wt. %, 0.04 wt. %, and 0.4 wt. % of Indigo Carmine (prepared by serial dilutions of a 0.4 wt. % Indigo Carmine solution provided by Micro-Tech (Nanjing) Co.) were instilled by injection into the anterior chamber of seven eye bank eyes following the dye solution instillation procedure detailed above.
Special imaging techniques were not required.

[5] = cited from earlier work
[6] = test system: anterior capsule; details: cited from earlier work
[7] = test system: ocular structures; details: cited from earlier work
[8] = anterior chamber perfused or injected with dye solution, sodium salt

## O=C1C(=C2Nc3ccc(S(=O)(=O)[O-])cc3C2=O)Nc2ccc(S(=O)(=O)[O-])cc21.[Na+].[Na+] [Indigo Carmine, 5,5′-indigodisulfonic acid sodium salt]
[1]
  Protein binding: low protein binding; also recorded: relatively reduced protein binding
[2]
  Delineation of ocular surface squamous neoplastic lesion: delineated
[3]
  Identification of the lenticule edge: white arrows indicate the complete circular edge of the lenticule
[4]
  Diffusion of dye through tissues: generally does not diffuse through tissues
[4]; [8]
  Staining of the canal of Schlemm: stains heavily; also recorded: heavy staining of Schlemm's canal
  Staining of the trabecular meshwork: stains the trabecular meshwork lightly; also recorded: more lightly stained
[4]; at each concentration: 0.004 wt. %, 0.04 wt. %, 0.4 wt. %
  Visibility of dye in the collector channels on the surface of the eye after passing through the drainage system: visible to the naked eye of the surgeon
[4]; sodium salt
  Appearance (egress) of dye in the outflow vessels after injection into the anterior chamber: appeared in the fine vessels in the conjunctiva adjacent to the limbus, the aqueous veins and the conjunctival venous system; also recorded: some of the dye exiting the eye through the aqueous veins
[4]; injection via small corneal incision, capsulorhexis procedure, sodium salt
  Staining of the anterior capsule of the lens: stain the anterior capsule of the crystalline lens; also recorded: lightly stained
[4]; no special imaging techniques, standard operating microscope
  Visibility of dye on the surface of the instilled eye: easily visible to the naked eye of the surgeon
[4]; once the conjunctiva was reflected away, sodium salt
  Dye in the deep scleral plexus: observed in the deep scleral plexus; also recorded: deeper vessels are seen
[5]
  Solubility in water: soluble in water

## CC1(C)C(/C=C/C=C/C=C/C=C2\N(CCCCS(=O)(=O)O)c3ccc4ccccc4c3C2(C)C)=[N+](CCCCS(=O)(=O)[O-])c2ccc3ccccc3c21 [Indocyanine Green]
[4]
  Appearance (egress) of dye in the outflow vessels after injection into the anterior chamber: the dye appears to remain within the eye

## CCN(CC)c1ccc(C(=C2C=CC(=[N+](CC)CC)C=C2)c2cc(O)c(S(=O)(=O)O)cc2S(=O)(=O)O)cc1 [Patent Blue]
[4]
  Appearance (egress) of dye in the outflow vessels after injection into the anterior chamber: the dye appears to remain within the eye

## Cc1cc(-c2ccc(/N=N/c3c(S(=O)(=O)O)cc4cc(S(=O)(=O)O)cc(N)c4c3O)c(C)c2)ccc1/N=N/c1c(S(=O)(=O)O)cc2cc(S(=O)(=O)O)cc(N)c2c1O [Trypan Blue]
[6]
  Lowest concentration at which staining of the anterior capsule occurs: ≥ 0.0125 wt. %
[7]
  Identifying and visualizing anterior lens capsule and trabecular meshwork: effective
  Identifying or visualizing the canal of Schlemm: not effective
[4]
  Appearance (egress) of dye in the outflow vessels after injection into the anterior chamber: the dye appears to remain within the eye

## Brilliant Blue
[4]
  Appearance (egress) of dye in the outflow vessels after injection into the anterior chamber: the dye appears to remain within the eye
